Measurements reported in PubChem BioAssay (NCI).
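Interpolation was linear, between the two tested concentrations surrounding the appropriate level; five concentrations were tested over 48 hours in 96-well plates. GI50: concentration for 50% inhibition of growth. TGI denotes the concentration required for complete inhibition of growth.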

What was measured:
Experiment in all cases: growth of human tumour cells (NCI), 48 h
OVCAR-8 ovarian = system: OVCAR-8 ovarian
RPMI-8226 leukemia = system: RPMI-8226 leukemia
SNB-19 CNS = system: SNB-19 CNS
SF-539 CNS = system: SF-539 CNS
COLO 205 colon = system: COLO 205 colon
NCI-H460 lung = system: NCI-H460 lung
NCI-H522 lung = system: NCI-H522 lung
SK-MEL-5 melanoma = system: SK-MEL-5 melanoma
A498 renal = system: A498 renal
NCI-H226 lung = system: NCI-H226 lung

SMILES	GI50 (OVCAR-8 ovarian) [µM]	TGI (OVCAR-8 ovarian) [µM]	GI50 (RPMI-8226 leukemia) [µM]	TGI (RPMI-8226 leukemia) [µM]	GI50 (SNB-19 CNS) [µM]	TGI (SNB-19 CNS) [µM]	GI50 (SF-539 CNS) [µM]	TGI (SF-539 CNS) [µM]	GI50 (COLO 205 colon) [µM]	TGI (COLO 205 colon) [µM]	GI50 (NCI-H460 lung) [µM]	TGI (NCI-H460 lung) [µM]	GI50 (NCI-H522 lung) [µM]	TGI (NCI-H522 lung) [µM]	GI50 (SK-MEL-5 melanoma) [µM]	TGI (SK-MEL-5 melanoma) [µM]	GI50 (A498 renal) [µM]	TGI (A498 renal) [µM]	GI50 (NCI-H226 lung) [µM]	TGI (NCI-H226 lung) [µM]
CC[C@H](CC#N)OC(=O)N[C@@H](C)c1cccc(NC(=O)Nc2ccc(-c3cnco3)c(OC)c2)c1	0.0612	23.5	0.152	19.4	0.125	> 100	0.0386	28	0.0203	18	0.0328	17.1	0.0731	15.1	0.18	16.4	0.138	20.8	2	38.4
COc1cc([C@@H]2c3cc4c(cc3[C@@H](NC(=O)c3ccccc3)C3COC(=O)[C@@H]32)OCO4)cc(OC)c1O (stereo partly specified)		37.7		21.8		> 100		24.8		92.8		15.2		26.2		14.1		27		8.28
O=C1C(Cl)=C(Nc2cccc(O)c2)C(=O)N1c1cc(Cl)c(Cl)cc1Cl	24	75.5	14.4	45.8	20.4	45.5	14.9	34.3	18	38	18	38.4	14.3	28	11	23.3		7.84	14.7	40.9
Oc1ccc(CCCCCCc2ccc(O)cc2)cc1	5.18	20.2	12.1	> 69	12.6	25.5	2.46	13.7	15.2	29.4	5.88	18.9	5.98	24.2	5.27	17.1	11.4	23.5	15.7	32.9
CC(=O)Nc1ccc2c(c1)oc(=O)c1cc(NC(C)=O)ccc12	> 100	> 100	52.8	> 100	> 100	> 100	> 100	> 100	41.7	> 100	> 100	> 100	55.7	> 100	96.5	> 100	> 100	> 100	> 100	> 100
O=C1/C(=C/c2ccc(O)cc2)COc2ccc(-c3ccccc3)cc21	9.27	23.1	1.4	7.68	15.7	37.3	13.9	27	10.6	33.9	3.73	15.8	2.93	16.4	8.67	22.9	11.5	23.8	16.1	39.2
CCN(Cc1ccccc1OC)c1ccc(CO)c(Cl)c1	12.4	31.8	2.67	21.5	13.7	31.8	14.4	27.8	4.81	14.4	0.511	11.6	12	26.1	6.61	19.9	0.0454	0.13	0.0487	0.179
CC(=O)Oc1ccc(O)c(O)c1C/C=C(\C)CC/C=C(\C)CC/C=C(\C)CCC=C(C)C		1.79				2.8		1.62		0.341		1.31		6.84						2.27
CCOP(=O)(OCC)C(NC(c1ccccc1)c1ccccc1)c1cccc2ccccc12 (stereo unspecified)	6.14	> 100	2.38	5.57			23	41.4			5.05	25.8	7.96	> 100	14.9	32.2			4.63	19
COc1cc(/C=C/C(=O)c2sc(Nc3ccccc3)nc2C)ccc1O		> 100		> 100		> 100		> 100		> 100		> 100		> 100		> 100		> 100		
CCCCCCCCCCCCCCCC(=O)OCC1OC(n2c(O)c(N=NC(N)=S)c3ccc([N+](=O)[O-])cc32)C(OC(C)=O)C1OC(C)=O (stereo unspecified)		> 100		> 100		> 100		> 100		> 100		> 100		> 100		> 100				> 100
COc1ccc(-c2cncn2-c2ccc(OC)cc2)cc1	21.1	52.8	10.9	32.5			11.2	29.2			15.6	48.4	13.6	38.3	17.9	33.8	16.3	34.3	22.5	98.3
CCCCn1cnc2c(SC)ncnc21		> 100		> 100		> 100		> 100		> 100		> 100		> 100		> 100		> 100		
CC/C=C\C/C=C\C/C=C\CCCCCCCC(=O)OCC		> 100		> 100				> 100		> 100						> 100		> 100		> 100
CC1=C(O)C(=O)C2C(=O)C1C(C)C2c1ccc(Cl)cc1 (stereo unspecified)		> 100		> 100		> 100		> 100		> 100				> 100		> 100		> 100		> 100
O=C(O)c1cc(=O)c2[nH]c3ccccc3c2s1		> 100		> 100		> 100				> 100		> 100		> 100		> 100				
